According to PubChem BioAssay AID540268 (Broad Institute, 2011):
Calls of active or inactive are those of the source. How the calls were made is not given here.

assay: reduced viability of parasite-Hsp90 expressing yeast – ATP luminescence, 48 h, cherry-picked samples, anti-malarial Hsp90 inhibitor project, dose response (AID 540268); conditions: yeast expressing the parasite Hsp90, ATP luminescence;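 on activity change, negative = inhibition: 0% = neutral control wells and -100% = positive control wells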

SMILES | AC50 [µM]
Cc1cc(/C=C\c2ccc3cc(N(C)C)ccc3[n+]2C)c(C)n1-c1ccccc1 | 4.39
CCCOC(=O)c1ccc(Oc2cn[nH]c2-c2ccc(OCC)cc2O)cc1 | < 0.195
O=C(/C=C/N1CCOCC1)c1ccc(-c2ccccc2)cc1 | 4.23
O=[N+]([O-])c1cc(Cc2ccccc2)cc(C=Nc2ccc(N3CCOCC3)cc2)c1O | 3.46
COc1cccc(F)c1C(C[N+](=O)[O-])c1c(N)n(C)c(=O)n(C)c1=O (configuration not stated) | 4.3
COc1cccc(/C=C/c2ccc3cccc(O)c3n2)c1 | < 0.195
CCCCC(CC)CN=C(N)NC(N)=NCCCCCCN=C(N)NC(N)=NCC(CC)CCCC (configuration not stated) | 4.34
CCCCCCCCCCCCCCCC[n+]1ccc(/C=N/O)cc1 | < 0.195
NC(=O)c1ccc(N=Cc2ccc([N+](=O)[O-])s2)cc1 | 1.48
CC(C)C(=O)NC(c1cccc([N+](=O)[O-])c1)c1ccc2cccnc2c1O (configuration not stated) | 2.73
CN(C)C(=S)SSC(=S)N(C)C | 3.96
Cc1ccc(-n2ncc3c2CCCC3NC(=O)c2ccccc2N2CCOCC2)cc1C (configuration not stated) | 0.984
CCCCCCC(=O)N(O)C1CC(=O)N(c2ccc(Cl)cc2)C1=O (configuration not stated) | 1.65
CCOC(=O)C(=Cc1ccc(-n2cncn2)cc1)C(=O)OCC | 6.51
COc1ccc2c(c1)OC[C@H]1[C@H]2N2C(=O)c3cc(OC)ccc3NC(=O)[C@@]2(C)[C@H]1c1ccccc1 | 24.7
COc1ccc(O)c(-c2cc(-c3cccc(Br)c3)n[nH]2)c1 | 7.23
c1cnc2c(c1)ccc1cccnc12 | 6.61
CCN(CCO)C1CC(=O)N(c2ccccc2C)C1=O (configuration not stated) | 1.26
O=c1cc2oc3cc(O)c(O)cc3c(-c3ccccc3[N+](=O)[O-])c-2cc1O | 3.19
Cc1ccc(N2C(=O)C3C4C=CC(CNC(=S)Nc5cccc(Cl)c5)(O4)C3C2=O)cc1 (configuration not stated) | 8.74
O=S1(=O)Nc2c(ccc3cccnc23)-c2ccccc21 | 0.894
CC(C)(C)C(O)C(Cc1ccccc1Cl)n1cncn1 (configuration not stated) | < 0.195

SMILES | AC50 [µM]
O=C1C=CC(=O)N1N(c1ccccc1)c1ccccc1 | 3.38
C=CC(C)(C)c1c(O)c(CC=C(C)C)c(O)c2c(=O)c3ccc(O)c(O)c3oc12 | 6.76
Oc1ccc2ccccc2c1/C=N/Nc1nnc(-c2ncc[nH]2)c2ccccc12 | 4.24
COCCOC(=O)/C(=C/c1ccc(OC(=O)c2ccccc2)cc1)C(C)=O | 2.68
CCC(=O)NC(c1cccs1)c1cc(Cl)c2cccnc2c1O (configuration not stated) | 3.73
CN(C)CC1Oc2ccccc2OC1(O)c1ccccc1 (configuration not stated) | 2.98
Cc1cc(/C=C2\SC(=S)N(C)C2=O)c(C)n1-c1ccc(O)cc1 | 8.33
CCOCCCNC1=C(Cl)C(=O)c2ccccc2C1=O | 4.93
N#C/C(=C\c1cccc([N+](=O)[O-])c1)C(=O)NCc1ccc(Cl)cc1 | 6.75
Cc1ccc(O)c(-c2cc(-c3cccc(F)c3)n[nH]2)c1 | 17.2
Oc1ccc(N=Nc2c(O)ccc3ccccc23)cc1 | 7.02
O=C(O)c1cccc(NN=C2c3ccccc3-c3ccccc32)c1 | 5.71
CN(C)/C=C/C(=O)c1ccc(N2CCN(c3ncc(C(F)(F)F)cc3Cl)CC2)cc1 | 4.16
CC1CCN(c2nc(Cl)nc(Nc3ccc([N+](=O)[O-])cc3)n2)CC1 | 24
O=C(Oc1c(Cl)cc(Cl)c2cccnc12)c1cccc([N+](=O)[O-])c1 | 16
COC(=O)[C@@H]1[C@@H](C#N)C2(c3ccccc3-c3ccccc32)N(c2ccc(Cl)cc2)N1C#N | 2.81
CCc1sc(C(=O)Nc2nc(-c3ccccn3)cs2)cc1C | 8.12
CN(C)/C=C/C(=O)c1ccc2noc(-c3cccc(F)c3)c2c1 | 13.5
O=C(OCn1ncc(Br)c(Br)c1=O)c1ccccc1Cl | 4.29
CCCCCCCCCCCCn1ccc(=N)cc1 | 7.7
CCN(CC)c1ccc(/C=C2/SC(=O)N(C(C)C)C2=O)o1 | 13.5
CC(=NNC(=S)Nc1cccc(C)c1)c1ccccn1 | 4.3

SMILES | AC50 [µM]
Cc1cccc(NC(=S)NCC23C=CC(O2)C2C(=O)N(c4ccc(Cl)cc4)C(=O)C23)c1 (configuration not stated) | 8.4
O=[N+]([O-])/C=C/c1ccc2c(ccn2Cc2ccccc2)c1 | 4.35
CC(=O)Nc1ccc(Nc2cc(C(C)C)nc3c(-c4ccccc4)c(C)nn23)cc1 | 3.68
CC1(C)N=C(SCC(=O)Nc2ccc(Cl)cc2)C(c2ccc(Cl)cc2)=N1 | 8.73
COc1cc(OC)cc(N2C(=O)CC(N3CCC(C(=O)N4CCCCC4)CC3)C2=O)c1 (configuration not stated) | 8.21
CC(=O)SC(C[N+](=O)[O-])c1cn(C(C)=O)c2ccccc12 (configuration not stated) | 1.57
Oc1c(CN2CCCCC2)cc(Br)c2cccnc12 | 2.95
CCCCCCCCCCCCCCCC(O)C[N+](C)(C)CCO (configuration not stated) | 6.61
CC1=C/C(=N\OS(=O)(=O)c2ccccc2)C(C)=CC1=O | 0.597
COc1ccc2oc(/C=C/N(C)C)c(C(=O)c3ccc(Cl)cc3)c2c1 | 3.78
COc1ccc(C(=O)O/N=C2\C(=O)N(C)c3ccccc32)cc1 | < 0.195
Cc1ccc(S(=O)(=O)Nc2ccc3cc([N+](=O)[O-])ccc3c2[N+](=O)[O-])cc1 | 11.9
OC(Cn1cncn1)(c1ccccc1)c1ccccc1 | 1.57
CC(C)c1ccc(-c2cc(C(=O)N3N=C(C(F)F)CC3(O)C(F)F)c3ccccc3n2)cc1 (configuration not stated) | 4.24
CC1CCN(C2CC(=O)N(c3ccc(Br)cc3Br)C2=O)CC1 (configuration not stated) | 0.774
Cn1nnnc1N=N/C(=N/Nc1ccccc1)c1ccccc1 | 3.2
Cc1c(C)c2cccnc2c2ncccc12 | 4.22
CC1(C)CC[C@]2(C(=O)O)CC[C@]3(C)C(=CC[C@@H]4[C@@]5(C)CC[C@H](O[C@@H]6O[C@H](C(=O)O)[C@@H](O)[C@H](O[C@@H]7OC[C@H](O)[C@H](O)[C@H]7O)[C@H]6O)C(C)(C)[C@@H]5CC[C@]43C)[C@@H]2C1 | 1.06
C=CC(n1cncn1)C(O)(c1ccccc1)c1ccccc1 (configuration not stated) | 1.03
CC(=O)NC(c1ccc(Cl)cc1)c1ccc2cccnc2c1O (configuration not stated) | 2.58
COc1ccc2oc(=O)c(-c3csc(Nc4cccc(O)c4)n3)cc2c1 | 7.93
Oc1ccccc1N=Nc1nc(-c2ccccc2)c(-c2ccccc2)[nH]1 | 1.98

SMILES | AC50 [µM]
CCc1ccc2c(c1)/C(=C/C(=O)c1cccs1)C(=O)N2 | 4.7
O=c1c2c3c(sc2ncn1/N=C/c1ccc([N+](=O)[O-])o1)CCCC3 | 2.66
CCCCCCCC/C=C\CCCCCCCC(=O)NCCO | 9.25
Cc1ccc(O)c(NC(=S)NC(=O)c2ccc(-c3ccc(Cl)cc3)o2)c1 | 14.7
COc1ccc(S(=O)(=O)N(C(=O)c2ccncc2)c2ccc(OC(=O)c3ccncc3)cc2)cc1 | 1.68
C(=NN=C1c2ccccc2-c2ccccc21)c1c[nH]c2ccccc12 | 2.72
Cc1ccc(S(=O)(=O)Nc2ccc3ccccc3c2[N+](=O)[O-])cc1 | 7.36
COc1cccc(/C=N/NC(=O)C(=O)Nc2ccccc2OC(F)(F)C(F)F)c1O | 0.731
O=[N+]([O-])/C=C/c1cn(Cc2ccccc2)c2ccccc12 | 5.99
C/C(=N\Nc1nc2ccccc2s1)c1ccc(Br)s1 | 4.47
Cn1c2ccccc2c2ccc3c(c21)C(=O)C=CC3=O | 8.02
C=CCn1c(C)cc(C(=O)CSc2nnc(NCc3ccccc3)s2)c1C | 4.2
CCOc1ccccc1-c1c2cc(O)c(=O)cc-2oc2cc(O)c(O)cc12 | 4.21
O=C1CC(N2CCN(c3nc4ccccc4s3)CC2)C(=O)N1Cc1cccs1 (configuration not stated) | 4.66
CC(=NNc1nc2ccccc2o1)c1cc2ccccc2cn1 | 17.7
COc1cccc(/C=C2/CCC(CN(C)C)C2=O)c1 (configuration not stated) | 7.93
NC(=O)C1CCN(C2CC(=O)N(c3ccc(F)c(Cl)c3)C2=O)CC1 (configuration not stated) | 1.67
O=[N+]([O-])c1ccc(NC(c2ccccc2)c2ccc3cccnc3c2O)cc1 (configuration not stated) | < 0.195
COc1cc2cnc(-c3ccccc3)c(C(=O)c3ccc(F)cc3)c2cc1OC | 3.01
Oc1ccc(Br)cc1/C=N/Nc1ccccn1 | 2.67
c1ccc(C(=NNc2nc3ccccc3s2)c2ccccn2)cc1 | 22.3
Nc1cc2c(cc1[N+](=O)[O-])-c1ccccc1C2=NO | 8.64

SMILES | AC50 [µM]
COc1ccc(OC)c(NC(=O)c2nc(S(=O)(=O)Cc3ccccc3)ncc2Cl)c1 | 4.3
CCOC(=O)c1cc([N+](=O)[O-])c([N+](=O)[O-])cc1NC(C)=O | 2.08
COc1ccc(C(=O)/C=C/c2ccc(-c3ccccc3)cc2)cc1CSCC(=O)O | 6.01
O=C(Nc1nc(-c2ccccc2)cs1)c1ccccc1NS(=O)(=O)c1ccc(F)cc1 | 4.09
COC(=O)c1ccc(NC(=O)c2nc(S(=O)(=O)Cc3cccc(C)c3)ncc2Cl)cc1 | 3.99
Cc1[nH]n(-c2ccc([N+](=O)[O-])cc2)c(=O)c1C=NCCN1CCN(C(=O)c2ccccc2F)CC1 | 6.44
O=C(Oc1c(Cl)cc(Cl)c2cccnc12)c1cccs1 | 4.26
Cc1ccc(N=Nc2ccc(O)cc2)c(Br)c1 | 8.33
Cc1ccc(C2=NC(C)(C)N=C2SCC(=O)Nc2ccc(Cl)cc2)cc1 | 26.2
Cc1c(Cl)sn(-c2ccc(Cl)cc2)c1=O | < 0.195
O=C1Nc2ccc(Br)cc2/C1=C/C(=O)c1ccc2c(c1)OCO2 | 2.63
CC1=NOC(=O)/C1=C\c1ccc(-c2ccc(Br)cc2)o1 | 4.51
O=C1C=CC(=O)N1c1ccc2ccccc2c1 | 0.568
O=C1OC(c2ccccc2)(c2ccc3cc(O)ccc3c2)c2ccccc21 (configuration not stated) | 9.13
C=C1C(=O)C23CCC4C(C)(C(=O)OC)CCCC4(C)C2CCC1(O)C3 (configuration not stated) | 1.54
O=[N+]([O-])c1cccc(SSc2cccc([N+](=O)[O-])c2)c1 | 4.62
O=C(Nc1nnc(SCc2ccc(F)cc2)s1)c1ccccn1 | 4.41
O=C(c1cccs1)c1no[n+]([O-])c1C(=O)c1cccs1 | 2.18
Cc1cc2ccccn2c1C(=O)c1ccc([N+](=O)[O-])o1 | 2.33
O=[N+]([O-])c1ccc(O)c(/C=N/Nc2ccccn2)c1 | 3.31

same assay, conditions: yeast expressing the parasite Hsp90, ATP luminescence, at 26 µM (top of the series)

SMILES | activity change, negative = inhibition
CC(C)=CCc1c(O)ccc(C2COc3c(CC=C(C)C)c(O)cc(O)c3C2=O)c1O (configuration not stated) | -110% (inactive)
Cc1ccc(/C=C2/NC(=O)N(Cc3ccc(Br)cc3)C2=O)o1 | 47.3% (inactive)
O=C(/C(=C/c1cccc(Cl)c1)c1nc2ccccc2[nH]1)c1ccccc1 | 49.8% (inactive)
Cc1cccc(C)c1NC(=O)COC(=O)c1ccc([N+](=O)[O-])o1 | -33.6% (inactive)
